Type in all cases: biochemical
For assay [1], the target named is PKC alpha kinase (Homo sapiens, UniProt P17252). As to the kind of experiment: PKC alpha kinase inhibition, coupled-enzyme (NADH absorbance) assay, Ki. To be noted: 130 μM ATP, 4.5 nM PKC alpha kinase, 30° C. In outline: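 Enzyme in 100 mM HEPES pH 7.5, 10 mM MgCl2, 100 μM CaCl2, 0.01% Brij, preincubated with compound 10 min at 30 °C. Reaction started with 130 μM ATP (final); NADH consumption followed at 340 nm for 15 min at 30 °C. Ki fitted by non-linear regression of initial rates.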

The target of assay [2] is PKC delta kinase (Homo sapiens, UniProt Q05655). As to the kind of experiment: PKC delta kinase inhibition, coupled-enzyme (NADH absorbance) assay, Ki. As to conditions: 150 μM ATP, 46 nM PKC delta kinase, 30° C.; read-out: Ki PKC delta. A digest of the protocol: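 PKC delta in 100 mM HEPES pH 7.5, 10 mM MgCl2, 25 mM NaCl, 0.1 mM EDTA, 0.01% Brij, equilibrated 10 min at 30° C with compound from DMSO stock. Started with ATP at 150 μM final; NADH-coupled absorbance at 340 nm followed 15 min at 30° C. Ki from initial rates by non-linear regression.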

In assay [3] the target is PKC theta kinase (Homo sapiens, UniProt Q04759). As to the kind of experiment: PKC theta kinase inhibition, coupled-enzyme (NADH absorbance) assay, Ki. As to conditions: 240 μM ATP, 18 nM PKC theta kinase, 30° C. In outline: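 Coupled-enzyme kinase assay following NADH absorbance at 340 nm, in 100 mM HEPES pH 7.5, 10 mM MgCl2, 25 mM NaCl, 0.1 mM EDTA, 0.01% Brij. Compound in DMSO preincubated with enzyme 10 min at 30 °C. Ki from initial rates by non-linear regression.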

pKi: −log10 of the molar value.

Chain of PKC delta kinase (Q05655 whole entry): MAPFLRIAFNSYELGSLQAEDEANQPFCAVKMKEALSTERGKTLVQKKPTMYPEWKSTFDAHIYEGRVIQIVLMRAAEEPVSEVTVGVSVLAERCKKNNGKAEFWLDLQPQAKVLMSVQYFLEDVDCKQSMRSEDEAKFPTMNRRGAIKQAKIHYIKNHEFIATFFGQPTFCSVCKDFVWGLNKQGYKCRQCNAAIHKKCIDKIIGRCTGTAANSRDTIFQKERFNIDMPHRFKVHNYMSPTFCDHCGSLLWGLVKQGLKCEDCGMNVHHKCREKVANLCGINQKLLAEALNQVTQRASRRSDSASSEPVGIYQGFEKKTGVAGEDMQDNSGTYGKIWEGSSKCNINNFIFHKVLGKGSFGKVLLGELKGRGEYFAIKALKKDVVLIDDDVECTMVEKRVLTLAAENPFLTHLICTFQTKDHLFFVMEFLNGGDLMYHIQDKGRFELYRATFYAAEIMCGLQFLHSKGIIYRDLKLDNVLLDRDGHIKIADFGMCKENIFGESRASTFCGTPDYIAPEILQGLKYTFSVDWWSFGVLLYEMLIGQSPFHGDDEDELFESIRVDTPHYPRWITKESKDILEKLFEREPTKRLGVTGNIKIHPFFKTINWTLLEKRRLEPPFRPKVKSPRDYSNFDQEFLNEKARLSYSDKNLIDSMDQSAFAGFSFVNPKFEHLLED
Chain of PKC theta kinase (Q04759 whole entry): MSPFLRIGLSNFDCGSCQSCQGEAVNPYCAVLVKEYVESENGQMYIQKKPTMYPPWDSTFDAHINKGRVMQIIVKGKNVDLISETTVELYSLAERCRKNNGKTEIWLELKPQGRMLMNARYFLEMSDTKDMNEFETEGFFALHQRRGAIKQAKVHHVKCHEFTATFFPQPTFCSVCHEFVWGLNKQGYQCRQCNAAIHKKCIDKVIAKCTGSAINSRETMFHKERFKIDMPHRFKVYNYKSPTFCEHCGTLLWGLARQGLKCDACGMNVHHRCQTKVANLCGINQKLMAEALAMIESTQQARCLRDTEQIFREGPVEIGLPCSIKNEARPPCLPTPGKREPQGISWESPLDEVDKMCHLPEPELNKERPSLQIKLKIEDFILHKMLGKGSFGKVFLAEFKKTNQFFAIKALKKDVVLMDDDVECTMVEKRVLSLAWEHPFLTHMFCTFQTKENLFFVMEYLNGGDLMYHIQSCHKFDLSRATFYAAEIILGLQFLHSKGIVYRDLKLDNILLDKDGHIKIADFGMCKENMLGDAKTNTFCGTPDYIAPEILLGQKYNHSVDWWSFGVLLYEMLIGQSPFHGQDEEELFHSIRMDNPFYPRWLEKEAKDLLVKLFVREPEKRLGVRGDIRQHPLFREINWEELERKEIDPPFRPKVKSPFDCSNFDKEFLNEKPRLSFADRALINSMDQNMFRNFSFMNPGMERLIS

As for `CC(F)(F)C(C)(O)C1CN(c2ccc(F)c(-c3n[nH]c4ncccc34)n2)CCN1` (stereo not drawn) [Compound 282], the figures for the pKi in assay [1], in assay [2] and in assay [3] were less than 5.90, greater than 5.55 and greater than 7.30, respectively.
`CC(C)CC1(CO)CN(c2ccc(C(F)(F)F)c(-c3n[nH]c4ncccc34)n2)CCC1N` (stereo not drawn) [Compound 410]: the pKi in assay [1] was greater than 6.30; in assay [2], greater than 7.30; in assay [3], greater than 7.30.
Take `CC(C)C(C)(O)C1CN(c2nc(-c3n[nH]c4ncccc34)ccc2F)CCN1` (stereo not drawn) [Compound 376]: the pKi in assay [1] is less than 5.90; in assay [2], greater than 6.30; in assay [3], greater than 7.30.
Take `CC(C)CC1CCCN(c2ccc(F)c(-c3n[nH]c4ncccc34)n2)C1` (stereo not drawn) [Compound 334]: the results for the pKi in assay [1], in assay [2] and in assay [3] were less than 5.90, less than 5.90 and less than 6.15, respectively.
On to `CC(C)C(C)(O)C1CN(c2nc(-c3n[nH]c4ncccc34)ccc2F)CCN1` (stereo not drawn) [Compound 329], for which the pKi is greater than 5.55 in assay [1], greater than 7.30 in assay [2] and greater than 9.00 in assay [3].
For `NC1CCN(c2ccc(C(F)(F)F)c(-c3n[nH]c4ncccc34)n2)CC1` [Compound 126], in that order: less than 5.90, less than 5.90 and greater than 6.30.
For `CC(C)CC1(CN)CN(c2ccc(F)c(-c3n[nH]c4ncccc34)n2)C1` [Compound 457], in that order: less than 5.90, less than 5.90 and less than 6.15.
The like results for `Fc1ccc(N2CCNC(C3CC3)C2)nc1-c1n[nH]c2ncccc12` (stereo not drawn) [Compound 220] were, in that order, greater than 5.55, greater than 6.30 and greater than 7.30.
`CC(C)(F)C(N)C1CCCN(c2ccc(F)c(-c3n[nH]c4ncccc34)n2)C1` (stereo not drawn) [Compound 345]: the results for the pKi in assay [1], in assay [2] and in assay [3] were less than 5.90, greater than 6.30 and greater than 7.30, respectively.
With `c1cc(-c2n[nH]c3ncccc23)nc(C2CCNCC2)c1` [Compound 159], the figures for the pKi in assay [1], in assay [2] and in assay [3] were greater than 5.55, greater than 6.30 and greater than 6.30, respectively.
As for `CCC(C)(O)C1CN(c2ccc(F)c(-c3n[nH]c4ncccc34)n2)CCN1` (stereo not drawn) [Compound 243], the pKi in assay [1] is less than 5.90; in assay [2], less than 5.90; in assay [3], greater than 6.30.
As for `Cc1cccc(C2CN(c3cccc(-c4n[nH]c5ncccc45)n3)CCN2)c1` (stereo not drawn) [Compound 16], the values for the pKi in assay [1], in assay [2] and in assay [3] were greater than 5.55, less than 5.70 and greater than 6.30, respectively.
For `CC(C)CC1(C(N)=O)CN(c2ccc(C(F)(F)F)c(-c3n[nH]c4ncccc34)n2)C1` [Compound 430], in that order: less than 5.90, less than 5.90 and less than 6.15.
The like results for `CC(C)CC1CN(c2ccc(C(F)(F)F)c(-c3n[nH]c4ncccc34)n2)CCC1C#N` (stereo not drawn) [Compound 337] were, in that order, less than 5.90, less than 5.90 and greater than 6.30.
For `NC[C@@H]1CCCN1c1ccc(F)c(-c2n[nH]c3ncccc23)n1` [Compound 355], in that order: less than 5.90, less than 5.90 and less than 6.15.
Take `C=C(F)c1cc(-c2n[nH]c3ncccc23)nc(N2CCN[C@@H](CC(C)C)C2)c1` [Compound 55]: the pKi in assay [1] is less than 5.90; in assay [2] it was greater than 5.55; in assay [3], greater than 7.30.
The like results for `CC(C)(N)C1CCN(c2ccc(C(F)(F)F)c(-c3n[nH]c4ncccc34)n2)C1` (stereo not drawn) [Compound 361] were, in that order, less than 5.90, less than 5.90 and less than 6.15.
`NC1(C2CCCN(c3ccc(F)c(-c4n[nH]c5ncccc45)n3)C2)CCC1` (stereo not drawn) [Compound 324]: the values for the pKi in assay [1], in assay [2] and in assay [3] were greater than 5.55, greater than 7.30 and greater than 7.30, respectively.
Consider `OC1([C@@H]2CN(c3nc(-c4n[nH]c5ncccc45)c(F)cc3F)CCN2)CC1` [Compound 156], for which the pKi in assay [1] was less than 5.90; in assay [2], greater than 6.30; in assay [3], greater than 9.00.
The like results for `CC(C)=CC1CN(c2ccc(C(F)(F)F)c(-c3n[nH]c4ncccc34)n2)CCN1` (stereo not drawn) [Compound 104] were, in that order, greater than 5.55, greater than 5.55 and greater than 7.30.
The like results for `CC(C)C[C@H]1CN(c2ccc(C(F)(F)F)c(-c3n[nH]c4ncccc34)n2)CC(F)(F)CN1` [Compound 222] were, in that order, less than 5.90, less than 5.90 and less than 6.15.
For `NCC1CN(c2ccc(F)c(-c3n[nH]c4ncccc34)n2)CCC1O` (stereo not drawn) [Compound 296], in that order: less than 5.90, greater than 5.55 and greater than 6.30.
On to `Cc1ccc(C2CN(c3cccc(-c4n[nH]c5ncccc45)n3)CCN2)cc1` (stereo not drawn) [Compound 17], for which the pKi in assay [1] was greater than 5.55; in assay [2], less than 5.70; in assay [3] it was greater than 6.30.
`CC(C)(C)C(N)C1CCCN(c2ccc(F)c(-c3n[nH]c4ncccc34)n2)C1` (stereo not drawn) [Compound 307]: the values for the pKi in assay [1], in assay [2] and in assay [3] were greater than 6.30, greater than 7.30 and greater than 9.00, respectively.
For `CC(C)CC1(N)CCCN(c2ccc(C(F)(F)F)c(-c3n[nH]c4ncccc34)n2)C1` (stereo not drawn) [Compound 285], in that order: less than 5.90, less than 5.90 and greater than 6.30.
The like results for `CC(O)C1CN(c2cccc(-c3n[nH]c4ncccc34)n2)CCN1` (stereo not drawn) [Compound 164] were, in that order, less than 5.90, greater than 6.30 and greater than 7.30.
The like results for `CC(=O)NCC1CCCN(c2ccc(F)c(-c3n[nH]c4ncccc34)n2)C1` (stereo not drawn) [Compound 303] were, in that order, less than 5.90, less than 5.90 and less than 6.15.
Regarding `CC(C)C(C)(O)C1CN(c2nc(-c3n[nH]c4ncccc34)ccc2F)CCN1` (stereo not drawn) [Compound 373], the pKi in assay [1] was greater than 6.30; in assay [2], greater than 7.30; in assay [3] it was greater than 9.00.
For `FC1(c2cccc(-c3n[nH]c4ncccc34)n2)CCNCC1` [Compound 83], in that order: greater than 5.55, greater than 6.30 and greater than 7.30.
The like results for `CC(C)C[C@H]1CN(c2cccc(-c3n[nH]c4ncccc34)n2)CC[C@H]1O` [Compound 144] were, in that order, less than 5.90, greater than 5.55 and greater than 7.30.
The like results for `CC(C)C[C@H]1CN(c2ccc(C(F)(F)F)c(-c3n[nH]c4ncc(Br)cc34)n2)CCN1` [Compound 29] were, in that order, greater than 5.55, less than 5.70 and greater than 6.30.
With `OC1([C@@H]2CN(c3ccc(F)c(-c4n[nH]c5ncccc45)n3)CCN2)CC1` [Compound 251], the pKi in assay [1] is less than 5.90; in assay [2], greater than 6.30; in assay [3], greater than 7.30.
The like results for `Fc1ccc(N2CCCCC2)nc1-c1n[nH]c2ncccc12` [Compound 266] were, in that order, less than 5.90, less than 5.90 and less than 6.15.
The like results for `CCC[C@@H]1CN(c2cccc(-c3n[nH]c4ncccc34)n2)C[C@H](CC(C)C)N1` [Compound 15] were, in that order, greater than 5.55, greater than 6.30 and greater than 7.30.
For `CCC[C@H]1CN(c2ccc(C(F)(F)F)c(-c3n[nH]c4ncccc34)n2)C[C@@H]1N` [Compound 341], in that order: less than 5.90, less than 5.90 and less than 6.15.
